Earlier results, collected in patent publication US6124256A, “Method for the prevention of a patient's fibroproliferative vasculopathy” (priority 1998, dated 2000).

Tests used:
dysplastic lesions = conditions: arterial, venous and vascular transplant models, various animal species; results inconsistent between models
SSTR2 [1] = biological target: T1, SSTR2 (Homo sapiens, UniProt P30874)
Target sequence in this assay (P30874 whole entry, species assumed): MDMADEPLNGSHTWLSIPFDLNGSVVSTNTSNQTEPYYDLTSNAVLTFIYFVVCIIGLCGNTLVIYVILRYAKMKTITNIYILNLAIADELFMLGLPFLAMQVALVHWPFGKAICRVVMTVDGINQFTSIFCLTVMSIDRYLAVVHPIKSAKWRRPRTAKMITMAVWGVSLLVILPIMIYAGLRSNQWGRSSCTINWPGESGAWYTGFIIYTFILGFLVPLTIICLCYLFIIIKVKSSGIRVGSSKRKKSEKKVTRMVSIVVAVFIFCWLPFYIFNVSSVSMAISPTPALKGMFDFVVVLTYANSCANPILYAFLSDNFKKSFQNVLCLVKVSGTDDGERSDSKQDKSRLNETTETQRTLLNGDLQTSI

hSSTR1 = biological target: T2, hSSTR1 (Homo sapiens, UniProt P30872); conditions: human receptor in transfected CHO cell lines; read-out: binding affinities Ki hSSTR1
T2 construct: expressed in transfected cells; host or cells: CHO
T2 sequence (P30872 whole entry): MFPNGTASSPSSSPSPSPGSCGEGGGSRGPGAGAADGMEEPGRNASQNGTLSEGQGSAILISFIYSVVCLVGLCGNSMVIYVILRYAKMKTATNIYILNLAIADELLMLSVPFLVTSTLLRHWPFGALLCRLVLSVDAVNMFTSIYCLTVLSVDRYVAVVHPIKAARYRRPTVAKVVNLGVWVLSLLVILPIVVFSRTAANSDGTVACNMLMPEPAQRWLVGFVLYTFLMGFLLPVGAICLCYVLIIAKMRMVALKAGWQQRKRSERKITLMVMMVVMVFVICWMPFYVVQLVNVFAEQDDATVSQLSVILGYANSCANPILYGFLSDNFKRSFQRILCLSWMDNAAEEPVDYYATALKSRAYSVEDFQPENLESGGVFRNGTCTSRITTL

restenosis = conditions: randomized placebo controlled clinical trials; quantitated by angiography or as clinical events
hSSTR3 [2] = biological target: T3, hSSTR3 (Homo sapiens, UniProt P32745)
T3 sequence (P32745 whole entry): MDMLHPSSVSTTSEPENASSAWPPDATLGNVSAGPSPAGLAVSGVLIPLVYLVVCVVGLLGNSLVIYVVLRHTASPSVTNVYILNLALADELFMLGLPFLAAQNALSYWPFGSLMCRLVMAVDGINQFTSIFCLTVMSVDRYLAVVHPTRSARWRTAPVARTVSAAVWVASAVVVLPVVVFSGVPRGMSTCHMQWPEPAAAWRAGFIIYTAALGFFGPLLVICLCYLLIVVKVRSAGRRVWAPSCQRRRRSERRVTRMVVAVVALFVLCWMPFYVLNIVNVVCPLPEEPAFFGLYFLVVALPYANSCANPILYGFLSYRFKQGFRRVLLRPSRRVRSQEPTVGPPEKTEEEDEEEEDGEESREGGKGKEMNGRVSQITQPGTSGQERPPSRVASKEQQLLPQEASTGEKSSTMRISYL

[3] = test system: SSTR3, the rodent receptor
hSTR5 = biological target: T4, hSTR5 (Homo sapiens, UniProt P35346); conditions: human receptor in transfected CHO cell lines; read-out: binding affinities Ki hSTR5
T4 construct: expressed in transfected cells; host or cells: CHO
T4 sequence (P35346 whole entry): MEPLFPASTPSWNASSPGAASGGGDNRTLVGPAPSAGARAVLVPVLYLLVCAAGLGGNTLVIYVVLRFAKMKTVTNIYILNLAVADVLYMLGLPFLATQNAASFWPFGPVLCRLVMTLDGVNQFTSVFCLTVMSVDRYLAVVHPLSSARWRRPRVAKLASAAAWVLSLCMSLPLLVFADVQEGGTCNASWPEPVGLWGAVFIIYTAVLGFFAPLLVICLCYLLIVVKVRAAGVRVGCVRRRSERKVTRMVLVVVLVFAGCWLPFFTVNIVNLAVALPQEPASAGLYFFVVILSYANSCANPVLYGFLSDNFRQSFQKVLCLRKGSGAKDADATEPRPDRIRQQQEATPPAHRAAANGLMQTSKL

hSSTR4 = biological target: T5, hSSTR4 (Homo sapiens, UniProt P31391); conditions: human receptor in transfected CHO cell lines; read-out: binding affinities Ki hSSTR4
T5 construct: expressed in transfected cells; host or cells: CHO
T5 sequence (P31391 whole entry): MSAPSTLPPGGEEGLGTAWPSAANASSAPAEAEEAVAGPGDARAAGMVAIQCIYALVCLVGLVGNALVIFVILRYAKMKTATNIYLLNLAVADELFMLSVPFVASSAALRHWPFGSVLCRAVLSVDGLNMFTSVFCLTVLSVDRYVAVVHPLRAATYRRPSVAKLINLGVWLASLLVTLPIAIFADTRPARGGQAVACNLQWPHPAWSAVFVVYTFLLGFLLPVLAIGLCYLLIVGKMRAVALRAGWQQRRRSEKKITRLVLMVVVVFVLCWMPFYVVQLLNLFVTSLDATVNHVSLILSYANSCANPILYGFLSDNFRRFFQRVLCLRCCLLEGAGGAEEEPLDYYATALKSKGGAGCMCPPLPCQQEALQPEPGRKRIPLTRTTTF

SSTR2 [4] = biological target: T1, SSTR2; parameters: expressed in transfected cells; host or cells: CHO; conditions: human receptor in transfected CHO cell lines; read-out: binding affinities Ki hSSTR2
Target sequence in this assay (P30874 whole entry): as the sequence (P30874 whole entry, species assumed) above

hSSTR3 [5] = biological target: T3, hSSTR3; parameters: expressed in transfected cells; host or cells: CHO; conditions: human receptor in transfected CHO cell lines; read-out: binding affinities Ki hSSTR3

Row | binding to human SSTR3 (in words) (hSSTR3 [2]) | affinity for the rodent SSTR3 receptor (in words) [3] | Ki (hSTR5) [nM] | Ki (hSSTR4) [nM] | Ki (SSTR2 [4]) [nM] | Ki (hSSTR3 [5]) [nM] | Molecule | formation of dysplastic lesions (dysplastic lesions) | affinity to SSTR2 (in words) (SSTR2 [1]) | Ki (hSSTR1) [nM] | prevention of restenosis after percutaneous transluminal angioplasty (restenosis)
1 | – | – | – | – | – | – | CC(C)[C@@H]1NC(=O)[C@H](CCCCN)NC(=O)[C@@H](Cc2c[nH]c3ccccc23)NC(=O)[C@H](Cc2ccc(O)cc2)NC(=O)[C@@H](NC(=O)[C@H](N)Cc2ccc3ccccc3c2)CSSC[C@@H](C(=O)N[C@H](C(N)=O)[C@@H](C)O)NC1=O [Lanreotide, lanreotide] | prevents the formation of dysplastic lesions | high affinity | > 1000 | in some studies has been shown to prevent restenosis
2 | binds well | only moderate affinity | – | – | – | – | C[C@@H](O)[C@@H]1NC(=O)[C@H](CCCCN)NC(=O)[C@@H](Cc2c[nH]c3ccccc23)NC(=O)[C@H](Cc2ccccc2)NC(=O)[C@@H](NC(=O)[C@H](N)Cc2ccccc2)CSSC[C@@H](C(=O)N[C@H](CO)[C@@H](C)O)NC1=O [Octeoride, octreotide] | prevents the formation of dysplastic lesions | high affinity | – | the same therapeutic response has not been achieved
3 | – | – | > 1000 | 4.3 | > 1000 | > 1000 | desAA^1.2.5 [D-Trp^6 -N-p-isopropyl-4-aminomethyl-L-phenylalanine]-SST14 [DADI-SST14] | – | – | 3.2 | –
